US8853412B2, “Pyrrolidinone derivatives as GPR119 modulators for the treatment of diabetes, obesity, dyslipidemia and related disorders” (Sanofi, priority 2012, dated 2014)
pEC50: −log10 of the molar value.

Molecular target: T1, human GPR119 (Homo sapiens, UniProt Q8TDV5)
T1 construct: expressed in transfected cells; host or cells: HEK-293 cell line stably expressing recombinant GPR119
T1 sequence (Q8TDV5 1-335): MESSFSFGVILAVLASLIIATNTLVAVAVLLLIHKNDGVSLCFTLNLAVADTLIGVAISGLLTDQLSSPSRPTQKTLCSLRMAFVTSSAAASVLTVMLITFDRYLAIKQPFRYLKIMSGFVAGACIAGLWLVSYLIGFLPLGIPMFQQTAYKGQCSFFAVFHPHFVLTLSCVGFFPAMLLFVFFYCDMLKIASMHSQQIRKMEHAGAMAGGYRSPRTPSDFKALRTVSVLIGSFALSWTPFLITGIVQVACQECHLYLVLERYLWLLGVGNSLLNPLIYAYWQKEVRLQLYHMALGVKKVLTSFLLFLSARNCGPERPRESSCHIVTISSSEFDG
Assay: Functional cellular assay measuring GPR119-mediated cAMP release (HTRF), HEK-293 cells stably expressing recombinant GPR119
Type: cell-based
Conditions: cell line expressing human GPR119; cAMP response, 30 minutes at room temperature
Protocol: Functional Cellular Assays Measuring GPR119-Mediated cAMP Release.
Compounds of the invention, which are agonists of GPR119, were characterized by functional assays measuring the cAMP response of HEK-293 cell lines stably expressing recombinant GPR119 from man, mouse or rat, or by using a hamster cell line HIT-T15 expressing GPR119 endogenously. The cAMP content was determined using a kit based on homogenous time-resolved fluorescence (HTRF) from Cisbio Corp. (cat. no. 62AM4PEC). For preparation, cells were split into T175 culture flasks and grown to near confluency in medium (DMEM/10% FCS for HEK-293 cells, and F-12K medium/10% horse serum/2.5% FCS for HIT-T15 cells, respectively). Medium was then removed and cells washed with PBS lacking calcium and magnesium ions, followed by proteinase treatment with accutase (Sigma-Aldrich, cat. no. A6964). Detached cells were washed and resuspended in assay buffer (1×HBSS; 20 mM HEPES, 0.1% BSA, 2 mM IBMX) and cellular density determined. They were then diluted to 400000 cells/mL and 25 μL-aliquots dispensed to the wells of 96-well plates. For measurement, 25 μL of test compound in assay buffer was added and incubated for 30 minutes at room temperature. After addition of HTRF reagents diluted in lysis buffer, the plates were incubated for 1 hour, followed by measuring the fluorescence ratio at 665 vs. 620 nm. Potency of the agonists was quantified by determining the concentrations that caused 50% of the maximal response/activation (EC50). See Table 10 for exemplary data obtained using the cell line expressing human GPR119.

SMILES	pEC50
CC(C)COc1ccc(O[C@@H]2CCN(c3cc(F)c4c(c3)C(=O)CC4)C2=O)cn1 [Example 2-23]	8.15
CCOCC(C)Oc1ccc(O[C@@H]2CCN(c3cc(F)c4c(c3)C(=O)CC4)C2=O)cn1 (some centres unmarked) [Example 2-51]	7.11
O=C1CCc2c(F)cc(N3CC[C@@H](Oc4ccc(OCCF)nc4)C3=O)cc21 [Example 2-48]	7.19
CC(C)Oc1ccc(O[C@H]2CCN(c3cc(F)c4c(c3)C(=O)CC4)C2=O)cn1 [Example 3-20]	5.98
CC(C)CC(C)Oc1ccc(O[C@@H]2CCN(c3cc(F)c4c(c3)C(=O)CC4)C2=O)cn1 (some centres unmarked) [Example 2-45]	7.60
O=C1CCc2c(F)cc(N3CC[C@@H](Oc4ccc(OCCC(F)(F)F)nc4)C3=O)cc21 [Example 2-39]	7.74
CCCc1cc(O[C@@H]2CCN(c3cc(F)c4c(c3)C(=O)CC4)C2=O)cnc1OCC1CC1 [Example 8-04]	6.96
COC(C)(C)CCOc1ccc(O[C@@H]2CCN(c3cc(F)c4c(c3)C(=O)CC4)C2=O)cn1 [Example 2-62]	7.17
CC1(COc2ccc(O[C@@H]3CCN(c4cc(F)c5c(c4)C(=O)CC5)C3=O)cn2)CC1 [Example 2-60]	7.96
O=C1CCc2c(F)cc(N3CC[C@@H](Oc4ccc(OCC5CCCC5)nc4)C3=O)cc21 [Example 2-57]	8.05
O=C1CCc2ccc(N3CCC(Oc4ccc(Oc5ccc(F)cc5)cc4)C3=O)cc21 (centres unmarked) [Example 1-02]	6.05
O=C1CCc2c(F)cc(N3CC[C@@H](Oc4ccc(OCC5CCCCO5)nc4)C3=O)cc21 (some centres unmarked) [Example 2-54]	6.81
COC(=O)c1cc(O[C@@H]2CCN(c3cc(F)c4c(c3)C(=O)CC4)C2=O)cnc1OCC1CC1 [Example 8-01]	7.19
O=C1CCc2c(F)cc(N3CC[C@@H](Oc4ccc(O[C@@H]5CCOC5)nc4)C3=O)cc21 [Example 2-76]	7.03
CCCC[S+]([O-])c1ccc(O[C@@H]2CCN(c3cc(F)c4c(c3)C(=O)CC4)C2=O)cn1 (some centres unmarked) [Example 3-08]	6.25
Cc1c(N2CC[C@@H](Oc3ccc(OCC4CC4)nc3)C2=O)cc(F)c2c1C(=O)CC2 [Example 1-19]	6.16
O=C1CCc2c(F)cc(N3CC[C@@H](Oc4ccc(OC5CCCC5)nc4)C3=O)cc21 [Example 2-63]	8.30
CC(C)=CCOc1ccc(O[C@@H]2CCN(c3cc(F)c4c(c3)C(=O)CC4)C2=O)cn1 [Example 2-20]	7.48
CSCCCOc1ccc(O[C@@H]2CCN(c3cc(F)c4c(c3)C(=O)CC4)C2=O)cn1 [Example 2-40]	6.99
CC(C)CCOc1ccc(OC2CCN(c3ccc4c(c3)C(=O)CC4)C2=O)cc1 (centres unmarked) [Example 1-01]	6.41
